Source: article PMC10397291, “Molecular pathway and structural mechanism of human oncochannel TRPV6 inhibition by the phytocannabinoid tetrahydrocannabivarin” (Nature Communications, 2023)
Where a chain is given by its changes, count along the chain named. ≈ marks a conversion by molar mass, not a printed value. Where “and” joins values, the source holds several entries; their conditions need not be identical. Equal entries are not always repeated.

Columns and labels:
[1] = test system: non-transfected HEK293 cells; assay: Fura-2 AM measurements in non-transfected cells (Control, non-specific effects); assay type: cell-based
[2] = biological target: T1, F493A mutant hTRPV6 (Homo sapiens, UniProt Q9H1D0, F533A); assay: Fura-2 AM Ca2+ uptake, F493A mutant hTRPV6; assay type: cell-based
T1 construct: Full-length wild-type or mutant human TRPV6 was expressed in HEK 293S cells as described above; expressed in transfected cells; host or cells: HEK 293S GnTI- (baculovirus/BacMam transduction)
T1 sequence (Q9H1D0 41-765 F533A limits assumed): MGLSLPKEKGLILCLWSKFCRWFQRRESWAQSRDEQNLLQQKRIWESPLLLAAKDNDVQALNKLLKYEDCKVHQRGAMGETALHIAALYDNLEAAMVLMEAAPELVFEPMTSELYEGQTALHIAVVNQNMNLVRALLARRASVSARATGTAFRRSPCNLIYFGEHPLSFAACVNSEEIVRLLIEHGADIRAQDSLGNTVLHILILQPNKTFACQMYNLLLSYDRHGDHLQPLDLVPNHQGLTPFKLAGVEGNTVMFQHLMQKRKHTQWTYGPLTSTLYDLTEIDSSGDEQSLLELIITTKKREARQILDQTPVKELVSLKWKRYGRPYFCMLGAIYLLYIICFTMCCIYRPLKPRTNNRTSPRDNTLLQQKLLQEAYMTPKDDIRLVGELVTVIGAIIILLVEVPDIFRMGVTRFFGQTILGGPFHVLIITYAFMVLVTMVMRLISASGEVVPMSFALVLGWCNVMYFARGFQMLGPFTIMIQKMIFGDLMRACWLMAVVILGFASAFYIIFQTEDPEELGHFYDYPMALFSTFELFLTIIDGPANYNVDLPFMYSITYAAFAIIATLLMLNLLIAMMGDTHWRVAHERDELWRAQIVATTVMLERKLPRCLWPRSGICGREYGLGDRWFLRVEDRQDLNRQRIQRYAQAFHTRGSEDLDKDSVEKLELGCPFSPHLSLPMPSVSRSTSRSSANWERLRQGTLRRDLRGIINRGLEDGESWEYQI

[3] = test system: TRPV5; set-up: method as in PMID 28535500; settings: rat model for osteoarthritis; cited from earlier work
[4] = Solubility of stock in DMSO; assay type: physicochemical; settings: organic solvent or mixture
[5] = biological target: T2, T567A mutant hTRPV6 (Homo sapiens, UniProt Q9H1D0, T607A); assay: Fura-2 AM Ca2+ uptake, T567A mutant hTRPV6; assay type: cell-based
T2 construct: Full-length wild-type or mutant human TRPV6 was expressed in HEK 293S cells as described above; expressed in transfected cells; host or cells: HEK 293S GnTI- (baculovirus/BacMam transduction)
T2 sequence (Q9H1D0 41-765 T607A limits assumed): T1 sequence (Q9H1D0 41-765 F533A limits assumed) with A493F, T567A

In the case of `CCCc1cc(O)c2c(c1)OC(C)(C)[C@@H]1CCC(C)=C[C@@H]21` [THCV, tetrahydrocannabivarin], the “change in F340/F380 evoked by 10 mM Ca2+” value ([1]; 1 μM THCV, non-transfected Control for L490W) is reported as 0.594 and 0.640 and 0.727 and 0.615 and 0.755 and 0.577 and 0.626 and 0.554, the “change in F340/F380 evoked by 10 mM Ca2+” value ([1]; 1 μM THCV, non-transfected Control for L568Q) is reported as 0.236 and 0.186 and 0.230 and 0.259 and the “change in F340/F380 evoked by 10 mM Ca2+” value ([1]; 1 μM THCV, non-transfected Control for WT) is reported as 0.249 and 0.167 and 0.182 and 0.175 and 0.226 and 0.257 and 0.284. The “change in F340/F380 evoked by 10 mM Ca2+” value ([1]; 3 μM THCV, non-transfected Control for A561W) was 0.179 and 0.153 and 0.129 and 0.145, the “change in F340/F380 evoked by 10 mM Ca2+” value ([1]; 3 μM THCV, non-transfected Control for L490W) was 0.538 and 0.676 and 0.767 and 0.653 and 0.598 and 0.662 and 0.719 and 0.624 and the “change in F340/F380 evoked by 10 mM Ca2+” value ([1]; 3 μM THCV, non-transfected Control for L568Q) was 0.250 and 0.211 and 0.221 and 0.198. For the same molecule, the “change in F340/F380 evoked by 10 mM Ca2+” value ([1]; 3 μM THCV, non-transfected Control for WT) was 0.179 and 0.155 and 0.221 and 0.163 and 0.257 and 0.246 and 0.260 and 0.248, the “change in F340/F380 evoked by 10 mM Ca2+” value ([1]; 10 μM THCV, non-transfected Control for A561W) was 0.140 and 0.130 and 0.114 and 0.151 and the “change in F340/F380 evoked by 10 mM Ca2+” value ([1]; 10 μM THCV, non-transfected Control for L490W) was 0.786 and 0.674 and 0.776 and 0.581 and 0.711 and 0.793 and 0.539 and 0.598. For the same molecule, the “change in F340/F380 evoked by 10 mM Ca2+” value ([1]; 10 μM THCV, non-transfected Control for L568Q) was 0.183 and 0.286 and 0.214 and 0.195, the “change in F340/F380 evoked by 10 mM Ca2+” value ([1]; 10 μM THCV, non-transfected Control for WT) was 0.157 and 0.141 and 0.174 and 0.159 and 0.185 and 0.222 and 0.233 and 0.195 and the “change in F340/F380 evoked by 10 mM Ca2+” value ([1]; 30 μM THCV, non-transfected Control for A561W) was 0.167 and 0.140 and 0.127 and 0.125. For the same molecule, the “change in F340/F380 evoked by 10 mM Ca2+” value ([1]; 30 μM THCV, non-transfected Control for L490W) was 0.558 and 0.549 and 0.721 and 0.691 and 0.606 and 0.572 and 0.500 and 0.698, the “change in F340/F380 evoked by 10 mM Ca2+” value ([1]; 30 μM THCV, non-transfected Control for L568Q) was 0.187 and 0.206 and 0.233 and the “change in F340/F380 evoked by 10 mM Ca2+” value ([1]; 30 μM THCV, non-transfected Control for WT) was 0.137 and 0.141 and 0.135 and 0.156 and 0.185 and 0.188 and 0.221 and 0.228. For the same molecule, the “change in F340/F380 evoked by 10 mM Ca2+” value ([1]; 100 μM THCV, non-transfected Control for A561W) was 0.497, the “change in F340/F380 evoked by 10 mM Ca2+” value ([1]; 100 μM THCV, non-transfected Control for L490W) was 0.627 and 0.939 and 0.740 and 0.797 and 0.911 and 0.811 and 1.132 and 0.767 and the “change in F340/F380 evoked by 10 mM Ca2+” value ([1]; 100 μM THCV, non-transfected Control for WT) was 0.644. The IC50 [2] was 2.7 ± 0.23 µM, the “fraction of uninhibited channels” value ([2]; F493A, high THCV concentration) was ~ 20% and the “effect on joint destruction” value [3] was “slow the progression of joint destruction”. The solubility [4] was 50 mM (≈ 14.3 mg/mL), the IC50 [5] was 12 ± 0.7 µM and the “change in F340/F380 evoked by 10 mM Ca2+” value ([5]; 1 μM THCV, replicates) was 1.267.
